Data on 14 compounds can be found in PubChem BioAssay (NCI).

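96-well plates; 48 h exposure; 5 concentrations. Endpoints by linear interpolation between flanking doses. Not reached: highest tested concentration assigned. TGI: total growth inhibition.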

Test systems include OVCAR-5 ovarian; CCRF-CEM leukemia; DU-145 prostate; LOX IMVI melanoma; 786-0 renal; ACHN renal; OVCAR-8 ovarian; HOP-92 NSCLC; HCC-2998 colon; NCI-H226 lung.
Common to all, as to assay: DTP human tumour cell line panel, 48 h

With `CC(C)=C[C@@H]1C[C@H](C)[C@H]2CC[C@H](C)[C@H]3C(=O)C(O)=C(C)C(=O)[C@]123`, the TGI in the assay on OVCAR-5 ovarian, in the assay with CCRF-CEM leukemia, with DU-145 prostate, in the assay on LOX IMVI melanoma, in the assay with 786-0 renal and in the assay on ACHN renal was more than 100 µM each time. Also, the TGI in the assay with OVCAR-8 ovarian, with HOP-92 NSCLC, with HCC-2998 colon and in the assay with NCI-H226 lung was more than 100 µM throughout.
`CC(C)(C)OC(=O)NCCCCC1NC(=O)[C@@H]2Cc3c([nH]c4ccccc34)C(c3ccccc3)N2C1=O` (stereo not given in full): the TGI in the assay with OVCAR-5 ovarian was more than 100 µM; in the assay on CCRF-CEM leukemia, more than 100 µM; in the assay on DU-145 prostate it was more than 100 µM; with LOX IMVI melanoma, 56.4 µM; in the assay with 786-0 renal, 82.3 µM; in the assay with ACHN renal, more than 100 µM. For the same compound, the TGI in the assay on OVCAR-8 ovarian was more than 100 µM; in the assay on HOP-92 NSCLC it was 85.1 µM; in the assay on HCC-2998 colon, 40.3 µM; with NCI-H226 lung, more than 100 µM.
As to `CO/C(N)=C(\C#N)N=Cc1cccs1`, the TGI in the assay with OVCAR-5 ovarian, with CCRF-CEM leukemia, in the assay with DU-145 prostate, in the assay on LOX IMVI melanoma, with 786-0 renal and with ACHN renal was more than 100 µM in each case. Further, the TGI in the assay with OVCAR-8 ovarian, in the assay with HOP-92 NSCLC, in the assay on HCC-2998 colon and in the assay on NCI-H226 lung was more than 100 µM in each case.
`CC(=O)Oc1c(OC(C)C)cc(=O)n2ccsc12`: the TGI in the assay on OVCAR-5 ovarian is more than 100 µM; in the assay on CCRF-CEM leukemia, 70.4 µM; in the assay on DU-145 prostate, more than 100 µM; in the assay on LOX IMVI melanoma, more than 100 µM; with 786-0 renal, more than 100 µM; in the assay on ACHN renal, more than 100 µM. In addition, the TGI with OVCAR-8 ovarian, in the assay on HOP-92 NSCLC, in the assay on HCC-2998 colon and in the assay with NCI-H226 lung was more than 100 µM each time.
Consider `CCOC(=O)c1ccc(-c2cccs2)[nH]1`, for which the TGI with OVCAR-5 ovarian, in the assay on CCRF-CEM leukemia, in the assay with DU-145 prostate, in the assay with LOX IMVI melanoma, in the assay with 786-0 renal and in the assay with ACHN renal was more than 100 µM throughout. The TGI in the assay with OVCAR-8 ovarian was more than 100 µM; in the assay on HOP-92 NSCLC, more than 76.5 µM; with HCC-2998 colon, more than 100 µM; in the assay with NCI-H226 lung, more than 100 µM.
Take `CCN(CCCl)c1ccc(NC(=O)c2cc(C(=O)NCCN(C)C)cc(C(=O)Nc3ccc(N(CC)CCCl)cc3)c2)cc1`: the TGI was determined as 87.1 µM in the assay with OVCAR-5 ovarian; 3.27 µM in the assay on CCRF-CEM leukemia; 39.2 µM with DU-145 prostate; 12.8 µM in the assay with LOX IMVI melanoma; 3.12 µM in the assay on 786-0 renal; 21.3 µM with ACHN renal. For the same compound, the TGI in the assay with OVCAR-8 ovarian turned out to be 25.2 µM; in the assay on HOP-92 NSCLC it was 29.8 µM; in the assay on HCC-2998 colon, 35 µM; in the assay on NCI-H226 lung, 25.1 µM.
Turning to `Cn1c(=O)c2c(n(C)c1=O)n1c(=O)c3ccccc3nc1n2C`, the TGI in the assay with OVCAR-5 ovarian, in the assay with CCRF-CEM leukemia, with DU-145 prostate, with LOX IMVI melanoma, in the assay with 786-0 renal and in the assay with ACHN renal was more than 100 µM throughout. The TGI is more than 100 µM in the assay on OVCAR-8 ovarian, more than 100 µM in the assay on HOP-92 NSCLC, more than 100 µM in the assay with HCC-2998 colon and 73.2 µM in the assay with NCI-H226 lung.
Consider `O=C(c1ccccc1)n1c2ccc(Br)cc2c2nc3ccccc3nc21`, for which the TGI in the assay with OVCAR-5 ovarian, with CCRF-CEM leukemia, with DU-145 prostate, in the assay on LOX IMVI melanoma, in the assay on 786-0 renal and in the assay with ACHN renal was more than 100 µM throughout. In addition, the TGI in the assay with OVCAR-8 ovarian, with HOP-92 NSCLC, in the assay on HCC-2998 colon and with NCI-H226 lung was more than 100 µM each time.
Consider `CCCCCNC(=O)OC1CCn2c1nc1c2C(=O)C(C)=C(N2CC2)C1=O` (stereo not given), for which the TGI in the assay with OVCAR-5 ovarian is 7.77 µM; with CCRF-CEM leukemia it was more than 100 µM; in the assay on DU-145 prostate, 2.37 µM; with LOX IMVI melanoma, 1.07 µM; in the assay with 786-0 renal, 1.75 µM; in the assay on ACHN renal, 2.81 µM. Moreover, the TGI with OVCAR-8 ovarian turned out to be 5.31 µM; in the assay with HOP-92 NSCLC, 72 µM; with HCC-2998 colon, 1.37 µM; in the assay on NCI-H226 lung, 4.26 µM.
For `CCOC(=O)c1c(SCCN(CC)CC)n(-c2ccccc2)c(=S)n(-c2ccccc2)c1=O`, the TGI was more than 57.6 µM in the assay with OVCAR-5 ovarian; 3.34 µM with CCRF-CEM leukemia; 3.06 µM with DU-145 prostate; 4.03 µM in the assay with LOX IMVI melanoma; 3.17 µM with 786-0 renal; 3.2 µM with ACHN renal. Also, the TGI in the assay with OVCAR-8 ovarian worked out at 7.19 µM; in the assay with HOP-92 NSCLC, 4.15 µM; with HCC-2998 colon, 3.46 µM; in the assay on NCI-H226 lung, 41.1 µM.
For `CN1Cc2c(ccc3c2OCO3)[C@@H]2[C@H](O)Cc3cc4c(cc3[C@@H]21)OCO4`, the TGI with OVCAR-5 ovarian is more than 100 µM; in the assay with CCRF-CEM leukemia, more than 29.2 µM; with DU-145 prostate, more than 30.6 µM; in the assay on LOX IMVI melanoma, more than 47.3 µM; in the assay on 786-0 renal, more than 75 µM; in the assay with ACHN renal, more than 100 µM. Further, the total growth inhibition concentration (TGI) is more than 51.5 µM in the assay on OVCAR-8 ovarian, more than 100 µM with HOP-92 NSCLC, 4.49 µM in the assay with HCC-2998 colon and 9.94 µM with NCI-H226 lung.
`C[C@@H](c1ccccc1)N(CC#N)[C@H]1CCC[C@]1(O)/C=C/c1ccc2c(c1)OCO2`: the total growth inhibition concentration (TGI) is more than 25 µM with OVCAR-5 ovarian; more than 25 µM in the assay with CCRF-CEM leukemia; more than 25 µM in the assay with DU-145 prostate; more than 25 µM in the assay with LOX IMVI melanoma; more than 25 µM in the assay with 786-0 renal; 8.04 µM in the assay with ACHN renal. In addition, the TGI in the assay on OVCAR-8 ovarian, with HOP-92 NSCLC, with HCC-2998 colon and in the assay with NCI-H226 lung was more than 25 µM each time.
As to `Nc1nc(Nc2cc(F)c(Cl)c(F)c2)cc(=O)[nH]1`, the TGI in the assay with OVCAR-5 ovarian, with CCRF-CEM leukemia, with DU-145 prostate, with LOX IMVI melanoma, with 786-0 renal and in the assay with ACHN renal was more than 100 µM each time. Besides, the TGI with OVCAR-8 ovarian was more than 100 µM; in the assay on HOP-92 NSCLC it was more than 100 µM; in the assay with HCC-2998 colon it was 61.5 µM; in the assay on NCI-H226 lung, more than 100 µM.
For the compound `CC(C)[C@H](NC(=O)OCc1ccccc1)C(=O)N[C@H](/C=C/C(=O)OC(C)(C)C)CO`, the TGI with OVCAR-5 ovarian, in the assay with CCRF-CEM leukemia, in the assay on DU-145 prostate, in the assay with LOX IMVI melanoma, in the assay with 786-0 renal and with ACHN renal was more than 100 µM throughout. The TGI in the assay on OVCAR-8 ovarian, in the assay on HOP-92 NSCLC, in the assay with HCC-2998 colon and with NCI-H226 lung was more than 100 µM throughout.

The TGI is the concentration at which net growth stops.
